Laboratory results: publication PMC4102788, “Linking off-target kinase pharmacology to the differential cellular effects observed among PARP inhibitors” (Oncotarget, 2014)
“Also recorded” adds a separate entry of the source.

How the values were obtained:
PARP-1 = molecular target: PARP-1; design: method as in PMID 21948594, PMID 21336281; conditions: ChEMBL; cited from earlier work
S6K1 kinase = molecular target: S6K1 kinase; design: method as in PMID 24072592; conditions: cited from earlier work
PIM1 kinase = molecular target: PIM1 kinase; design: method as in PMID 23025350; conditions: cited from earlier work
STAT3 phosphorilation = tested on: STAT3 phosphorilation; design: method as in PMID 22678161; conditions: at 5 µM; cited from earlier work
16 protein kinases = experiment: Focused in vitro kinase screening across the panel of 16 protein kinases; type: biochemical, human; conditions: panel of 16 kinases
Description: From these kinases, we selected the 11 that were available for screening at Cerep (www.cerep.fr). The selection included members of three different kinase groups distantly related by sequence (all having less than 20% sequence identity with PIM1), namely, CAMK (PIM2, STK17A), CMGC (DYRK1A, CDK9, HIPK2, CK2, and CDC7) and AGC (AKT3, PRKCG, PRKCI, and PKA). To this list, we added also two kinases belonging to the TK group that have been identified as biomarkers of PARP drug sensitivity and shared ligands with PIM1, namely, ABL and ALK. […] In the end, a total of 16 protein kinases were selected for a focused in vitro screening of PARP inhibitors.
(§1) Rucaparib, veliparib and olaparib were purchased from Selleckchem. Kinase in vitro assays were perfomed at Cerep (www.cerep.fr) by measuring the phosphorylation of appropriate peptide substrates by human recombinant enzymes and using FRET as a detection method (a detailed description of each kinase assay is available in online supplementary data).

human CDC2/CDK1 = molecular target: T1, human CDC2/CDK1 (Homo sapiens, UniProt P06493); experiment: Human CDK1 kinase in vitro inhibition assay (Cerep, LANCE); type: biochemical
T1 construct: purchased Cerep (CRO that ran the assay) 2875 (781-cdc2); host or cells: insect cells
T1 sequence (P06493 whole entry): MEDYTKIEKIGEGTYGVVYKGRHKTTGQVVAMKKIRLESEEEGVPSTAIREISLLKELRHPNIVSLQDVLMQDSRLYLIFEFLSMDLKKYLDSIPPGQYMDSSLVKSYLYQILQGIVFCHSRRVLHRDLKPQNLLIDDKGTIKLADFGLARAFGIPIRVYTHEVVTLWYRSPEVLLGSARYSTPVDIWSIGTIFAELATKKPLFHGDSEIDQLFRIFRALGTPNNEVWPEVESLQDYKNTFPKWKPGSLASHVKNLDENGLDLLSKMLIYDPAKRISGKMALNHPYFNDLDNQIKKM
T1 sequence (P14635 whole entry partner): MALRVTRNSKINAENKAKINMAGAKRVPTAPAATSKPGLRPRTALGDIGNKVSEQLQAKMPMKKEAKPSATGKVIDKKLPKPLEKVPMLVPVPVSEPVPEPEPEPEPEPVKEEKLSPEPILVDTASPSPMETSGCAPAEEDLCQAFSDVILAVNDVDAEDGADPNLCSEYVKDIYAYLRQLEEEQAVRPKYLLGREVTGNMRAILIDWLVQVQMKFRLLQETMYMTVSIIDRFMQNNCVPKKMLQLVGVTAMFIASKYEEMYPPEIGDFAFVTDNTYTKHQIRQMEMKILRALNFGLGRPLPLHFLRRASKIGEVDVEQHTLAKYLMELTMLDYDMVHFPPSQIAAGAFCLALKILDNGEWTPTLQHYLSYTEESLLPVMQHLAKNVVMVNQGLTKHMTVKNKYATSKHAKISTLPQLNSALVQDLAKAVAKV
Description: All details for the CDC2/CDK1 in vitro assay can be consulted in the Cerep
Catalogue available online under references 2875 (781-cdc2):
http://www.cerep.fr/cerep/users/pages/catalog/Affiche_CondExp_Test.asp?test=2875
CDC2/CDK1 quantified by measuring the phosphorylation of
the substrate Ulight-[sequence]-amide (MBP) using a human
recombinant enzyme expressed in insect cells and the LANCE® detection method.
The test compound, reference compound or water (control) are mixed with the enzyme (2.28 ng) in a buffer containing 40 mM Hepes/Tris(pH 7.4), 0.8 mM EGTA/Tris, 8 mM MgCl2, 1.6 mM DTT and 0.008% Tween 20. Thereafter, the reaction is initiated by adding 100 nM of the
substrate Ulight-[sequence]-amide (MBP) and 10 µM ATP, and the
mixture is incubated for 15 min at room temperature. […] After 60 more min, the fluorescence transfer is
The IC50 values (concentration causing a half-maximal inhibition of control specific activity) and Hill coefficients (nH) were determined by non-linear regression analysis of the inhibition curves generated with mean replicate values using Hill equation curve fitting (Y = D + [(A – D)/(1 + (C/C50)nH)], where Y = specific activity, D = minimum specific activity, A = maximum specific activity, C = compound concentration, C50 = IC50, and nH = slope factor).

human DYRK1A kinase = molecular target: T2, human DYRK1A kinase (Homo sapiens, UniProt Q13627); experiment: Human DYRK1A kinase in vitro inhibition assay (Cerep, LANCE); type: biochemical
T2 construct: purchased Cerep (CRO that ran the assay) 2781 (781-dyrk1a)
Description: Evaluation of the effects of compounds on the activity of the human DYRK1a
[sequence]-amide (MBP) using a human recombinant enzyme and the
mixture is incubated for 30 min at room temperature. For control basal measurements,

human CDK9 kinase = molecular target: T3, human CDK9 kinase (Homo sapiens, UniProt P50750); experiment: Human CDK9 kinase in vitro inhibition assay (Cerep, LANCE); type: biochemical; conditions: human recombinant enzyme, 10 µM ATP
T3 construct: purchased Cerep (CRO that ran the assay) 2912 (781-cdk9); host or cells: Sf9 cells
T3 sequence (P50750 whole entry): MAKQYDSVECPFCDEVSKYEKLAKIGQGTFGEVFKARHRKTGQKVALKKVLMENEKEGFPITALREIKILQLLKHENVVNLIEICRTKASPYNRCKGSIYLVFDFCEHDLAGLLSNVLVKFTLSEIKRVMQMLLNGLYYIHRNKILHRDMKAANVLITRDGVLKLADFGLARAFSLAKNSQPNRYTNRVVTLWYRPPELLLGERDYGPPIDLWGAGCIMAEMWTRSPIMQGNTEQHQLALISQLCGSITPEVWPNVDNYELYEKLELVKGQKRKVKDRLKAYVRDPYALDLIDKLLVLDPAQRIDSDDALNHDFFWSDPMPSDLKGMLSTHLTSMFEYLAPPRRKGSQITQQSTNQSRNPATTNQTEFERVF
T3 sequence (O60563 whole entry partner): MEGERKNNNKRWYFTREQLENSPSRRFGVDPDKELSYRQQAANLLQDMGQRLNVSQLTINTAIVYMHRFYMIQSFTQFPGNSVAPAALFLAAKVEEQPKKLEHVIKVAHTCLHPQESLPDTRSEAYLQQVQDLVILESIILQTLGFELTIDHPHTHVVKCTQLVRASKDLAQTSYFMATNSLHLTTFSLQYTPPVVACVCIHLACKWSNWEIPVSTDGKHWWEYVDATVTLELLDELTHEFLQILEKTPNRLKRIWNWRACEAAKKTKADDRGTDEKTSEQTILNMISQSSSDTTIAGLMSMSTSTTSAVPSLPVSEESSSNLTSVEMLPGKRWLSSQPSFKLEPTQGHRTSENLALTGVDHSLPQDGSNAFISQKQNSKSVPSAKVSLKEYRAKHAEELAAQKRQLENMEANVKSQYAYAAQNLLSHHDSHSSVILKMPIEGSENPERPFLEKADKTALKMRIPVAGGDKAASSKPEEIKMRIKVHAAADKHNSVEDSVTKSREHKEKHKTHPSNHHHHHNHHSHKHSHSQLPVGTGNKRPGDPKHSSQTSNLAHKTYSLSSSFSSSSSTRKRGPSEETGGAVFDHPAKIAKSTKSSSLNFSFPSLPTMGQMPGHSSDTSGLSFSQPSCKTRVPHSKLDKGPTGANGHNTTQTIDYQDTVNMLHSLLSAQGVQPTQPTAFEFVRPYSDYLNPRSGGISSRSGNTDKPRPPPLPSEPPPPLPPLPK
Description: as §1
Human CDK9 kinase in vitro inhibition assay
All details for the CDK9 in vitro assay can be consulted in the Cerep Catalogue available online under references 2912 (781-cdk9): http://www.cerep.fr/cerep/users/pages/catalog/Affiche_CondExp_Test.asp?test=2912 Evaluation of the effects of compounds on the activity of the human CDK9 quantified by measuring the phosphorylation of the substrate Ulight- […]
mixture is incubated for 90 min at room temperature. […] After 60 more min, the fluorescence transfer is measured at λex=337 nm, λem=620 nm and λem=665 nm using a microplate reader (Envision, Perkin Elmer). The enzyme activity is determined by dividing the signal measured at λem=665 nm by that measured at λem=620 nm (ratio). The results are expressed as a percent inhibition of the control enzyme activity. The standard inhibitory reference compound is staurosporine, which is tested in each experiment at several concentrations to obtain an inhibition curve from which its IC50 value is calculated. […]

[1] = 50 mg single daily dose; cited from earlier work
human PIM1 kinase = molecular target: T4, human PIM1 kinase (Homo sapiens, UniProt P11309); experiment: Human Pim1 kinase in vitro inhibition assay (Cerep, LANCE/FRET); type: biochemical; conditions: human recombinant enzyme, 30 µM ATP
T4 construct: purchased Cerep (CRO that ran the assay) 2919 (745-P1); host or cells: insect cells
T4 sequence (P11309 whole entry): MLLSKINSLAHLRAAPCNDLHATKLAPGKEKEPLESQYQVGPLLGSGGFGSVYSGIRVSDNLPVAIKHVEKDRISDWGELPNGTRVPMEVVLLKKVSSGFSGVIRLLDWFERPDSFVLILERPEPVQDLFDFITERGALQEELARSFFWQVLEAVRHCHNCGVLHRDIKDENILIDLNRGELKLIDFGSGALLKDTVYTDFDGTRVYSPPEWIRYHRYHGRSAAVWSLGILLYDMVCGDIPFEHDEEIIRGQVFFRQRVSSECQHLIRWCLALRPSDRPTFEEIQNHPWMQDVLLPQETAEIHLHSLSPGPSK
Description: Human Pim1 and Pim2 kinase in vitro inhibition assays
Evaluation of the effects of compounds on the activity of the human Pim1 and Pim2 kinases were quantified by measuring the phosphorylation of the substrate Ulight-
CREBtide ([sequence]) using either Pim1 or Pim2 human recombinant enzymes expressed in insect cells and the LANCE® detection method 18,19.
The test compound, reference compound or water (control) are mixed with either Pim1 (4.08 ng) or Pim2 (6.36 ng) enzymes in a buffer containing 40 mM Hepes/Tris (pH 7.4), 0.8 mM EGTA/Tris, 8 mM MgCl2, 1.6 mM DTT and 0.008% Tween 20.
Thereafter, the reaction is initiated by adding 25 nM of the substrate Ulight-CREBtide
([sequence]) and ATP (30 µM for Pim1 and 3 µM for Pim2), and the mixture is incubated for 60 min at room temperature. […] After 60 more min, the fluorescence transfer is measured at λex=337 nm, λem=620 nm and λem=665 nm using a microplate reader (Envision, Perkin Elmer).

O=C1CCCN1Cc1ccc2c(c1)[nH]c(=O)c1cccn12 [CHEMBL539474]
Ki (PARP-1): 0.698 µM

NC(=O)c1cccc2[nH]c(-c3ccc(O)cc3)nc12 [Nu1085]
IC50 (S6K1 kinase): 0.56 µM

CN(C)CC(=O)Nc1ccc2[nH]c(=O)c3ccccc3c2c1 [PJ34]
IC50 (PIM1 kinase): 3.7 µM

O=C(c1cc(Cc2n[nH]c(=O)c3ccccc23)ccc1F)N1CCN(C(=O)C2CC2)CC1 [olaparib]
effect on STAT3 phosphorilation (STAT3 phosphorilation): do not affect the phosphorilation state of STAT3
affinity for the 16 protein kinases tested (16 protein kinases): does not inhibit any; also recorded: no relevant affinities
inhibition of CDK1 (in words) (human CDC2/CDK1): not inhibited
inhibition of DYRK1A (in words) (human DYRK1A kinase): not inhibited

C[C@]1(c2nc3c(C(N)=O)cccc3[nH]2)CCCN1 [veliparib]
effect on STAT3 phosphorilation (STAT3 phosphorilation): do not affect the phosphorilation state of STAT3
inhibition of CDK1 (in words) (human CDC2/CDK1): not inhibited
IC50 (human CDK9 kinase): 8.2 µM
highest peak plasma concentration [1]: around 1 µM
IC50 (human PIM1 kinase): 17 µM
inhibition of DYRK1A (in words) (human DYRK1A kinase): not inhibited
